Experimental data reported in the supplement of paper PMC10307832.

Tests used:
Assay in all cases: relative viability (nuclei count vs DMSO), 5 days (fraction); higher = more cells survive
HCC-827 = system: HCC-827
Outline: (§1)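 Values are medians from duplicate plates. Each reflects relative viability, defined as the nuclei count of treated wells over that of vehicle wells. Lung cancer cell lines in 1536-well plates were pin-tool dosed one day after seeding with one drug alone or with a fixed anchor-drug dose plus five library-drug doses (not always all listed) in √10 steps, then fixed, stained and imaged at 4× after 5 days.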

NCI-H2342 = system: NCI-H2342
Outline: as §1

EKVX = system: EKVX
Outline: as §1

NCI-H1734 = system: NCI-H1734
Outline: as §1

NCI-H1975 = system: NCI-H1975
Outline: as §1

LCLC-97TM1 = system: LCLC-97TM1
Outline: as §1

NCI-H1355 = system: NCI-H1355
Outline: as §1

PC-14 = system: PC-14
Outline: as §1

NCI-H1650 = system: NCI-H1650
Outline: as §1

NCI-H1563 = system: NCI-H1563
Outline: as §1

PC-3 [JPC-3] = system: PC-3 [JPC-3]
Outline: as §1

NCI-H322M = system: NCI-H322M
Outline: as §1

CAL-12T = system: CAL-12T
Outline: as §1

H3255 = system: H3255
Outline: as §1

NCI-H1755 = system: NCI-H1755
Outline: as §1

NCI-H661 = system: NCI-H661
Outline: as §1

LK-2 = system: LK-2
Outline: as §1

NCI-H2405 = system: NCI-H2405
Outline: as §1

NCI-H520 = system: NCI-H520
Outline: as §1

HCC-15 = system: HCC-15
Outline: as §1

RERF-LC-KJ = system: RERF-LC-KJ
Outline: as §1

NCI-H2228 = system: NCI-H2228
Outline: as §1

**Q.** `COc1nc(C)cnc1NS(=O)(=O)c1cccnc1-c1ccc(-c2nnco2)cc1` [Zibotentan] + CCNC(=O)c1noc(-c2cc(C(C)C)c(O)cc2O)c1-c1ccc(CN2CCOCC2)cc1 [Luminespib] (partner 0.01 µM) was tested. Which relative viability (HCC-827; first compound 0.08 µM) did it give?
**A.** 0.574

**Q.** What about the relative viability (HCC-827; first compound 0.253 µM) of the same molecule?
**A.** 0.501

**Q.** What about the relative viability (HCC-827; first compound 0.8 µM) of the same molecule?
**A.** 0.442

**Q.** And the relative viability (HCC-827; first compound 2.53 µM)?
**A.** 0.774

**Q.** What about the relative viability (NCI-H2342; first compound 0.08 µM) of the same molecule?
**A.** 0.702

**Q.** And the relative viability (NCI-H2342; first compound 0.253 µM)?
**A.** 0.617

**Q.** And the relative viability (NCI-H2342; first compound 0.8 µM)?
**A.** 0.652

**Q.** What about the relative viability (NCI-H2342; first compound 2.53 µM) of the same molecule?
**A.** 0.738

**Q.** And the relative viability (EKVX; first compound 0.08 µM)?
**A.** 0.762

**Q.** And the relative viability (EKVX; first compound 0.253 µM)?
**A.** 0.88

**Q.** What about the relative viability (EKVX; first compound 0.8 µM) of the same molecule?
**A.** 0.832

**Q.** What about the relative viability (EKVX; first compound 2.53 µM) of the same molecule?
**A.** 0.877

**Q.** What about the relative viability (NCI-H1734; first compound 0.08 µM) of the same molecule?
**A.** 0.19

**Q.** What about the relative viability (NCI-H1734; first compound 0.253 µM) of the same molecule?
**A.** 0.164

**Q.** And the relative viability (NCI-H1734; first compound 0.8 µM)?
**A.** 0.195

**Q.** And the relative viability (NCI-H1734; first compound 2.53 µM)?
**A.** 0.262

**Q.** And the relative viability (NCI-H1975; first compound 0.08 µM)?
**A.** 0.305

**Q.** What about the relative viability (NCI-H1975; first compound 0.253 µM) of the same molecule?
**A.** 0.0756

**Q.** What about the relative viability (NCI-H1975; first compound 0.8 µM) of the same molecule?
**A.** 0.198

**Q.** And the relative viability (NCI-H1975; first compound 2.53 µM)?
**A.** 0.218

**Q.** And the relative viability (LCLC-97TM1; first compound 0.08 µM)?
**A.** 0.948

**Q.** What about the relative viability (LCLC-97TM1; first compound 0.253 µM) of the same molecule?
**A.** 0.759

**Q.** And the relative viability (LCLC-97TM1; first compound 0.8 µM)?
**A.** 0.927

**Q.** And the relative viability (LCLC-97TM1; first compound 2.53 µM)?
**A.** 0.692

**Q.** What about the relative viability (NCI-H1355; first compound 0.08 µM) of the same molecule?
**A.** 0.738

**Q.** What about the relative viability (NCI-H1355; first compound 0.253 µM) of the same molecule?
**A.** 0.719

**Q.** What about the relative viability (NCI-H1355; first compound 0.8 µM) of the same molecule?
**A.** 0.773

**Q.** What about the relative viability (NCI-H1355; first compound 2.53 µM) of the same molecule?
**A.** 0.75

**Q.** What about the relative viability (PC-14; first compound 0.08 µM) of the same molecule?
**A.** 0.135

**Q.** And the relative viability (PC-14; first compound 0.8 µM)?
**A.** 0.151

**Q.** What about the relative viability (PC-14; first compound 2.53 µM) of the same molecule?
**A.** 0.128

**Q.** What about the relative viability (NCI-H1650; first compound 0.08 µM) of the same molecule?
**A.** 0.177

**Q.** And the relative viability (NCI-H1650; first compound 0.8 µM)?
**A.** 0.204

**Q.** And the relative viability (NCI-H1650; first compound 2.53 µM)?
**A.** 0.195

**Q.** And the relative viability (NCI-H1563; first compound 0.08 µM)?
**A.** 0.474

**Q.** What about the relative viability (NCI-H1563; first compound 0.253 µM) of the same molecule?
**A.** 0.499

**Q.** What about the relative viability (NCI-H1563; first compound 0.8 µM) of the same molecule?
**A.** 0.552

**Q.** What about the relative viability (NCI-H1563; first compound 2.53 µM) of the same molecule?
**A.** 0.559

**Q.** And the relative viability (PC-3 [JPC-3]; first compound 0.08 µM)?
**A.** 0.692

**Q.** And the relative viability (PC-3 [JPC-3]; first compound 0.253 µM)?
**A.** 0.738

**Q.** And the relative viability (PC-3 [JPC-3]; first compound 0.8 µM)?
**A.** 0.774

**Q.** And the relative viability (PC-3 [JPC-3]; first compound 2.53 µM)?
**A.** 0.718

**Q.** And the relative viability (NCI-H322M; first compound 0.08 µM)?
**A.** 0.876

**Q.** What about the relative viability (NCI-H322M; first compound 0.253 µM) of the same molecule?
**A.** 0.474

**Q.** And the relative viability (NCI-H322M; first compound 0.8 µM)?
**A.** 0.897

**Q.** And the relative viability (NCI-H322M; first compound 2.53 µM)?
**A.** 0.918

**Q.** What about the relative viability (CAL-12T; first compound 0.08 µM) of the same molecule?
**A.** 0.598

**Q.** What about the relative viability (CAL-12T; first compound 0.253 µM) of the same molecule?
**A.** 0.123

**Q.** What about the relative viability (CAL-12T; first compound 0.8 µM) of the same molecule?
**A.** 0.415

**Q.** What about the relative viability (CAL-12T; first compound 2.53 µM) of the same molecule?
**A.** 0.418

**Q.** What about the relative viability (H3255; first compound 0.08 µM) of the same molecule?
**A.** 0.996

**Q.** And the relative viability (H3255; first compound 0.253 µM)?
**A.** 0.839

**Q.** And the relative viability (H3255; first compound 0.8 µM)?
**A.** 0.899

**Q.** And the relative viability (H3255; first compound 2.53 µM)?
**A.** 0.799

**Q.** And the relative viability (NCI-H1755; first compound 0.08 µM)?
**A.** 0.338

**Q.** And the relative viability (NCI-H1755; first compound 0.253 µM)?
**A.** 0.558

**Q.** And the relative viability (NCI-H1755; first compound 0.8 µM)?
**A.** 0.489

**Q.** What about the relative viability (NCI-H1755; first compound 2.53 µM) of the same molecule?
**A.** 0.252

**Q.** And the relative viability (NCI-H661; first compound 0.08 µM)?
**A.** 0.953

**Q.** What about the relative viability (NCI-H661; first compound 0.253 µM) of the same molecule?
**A.** 0.836

**Q.** What about the relative viability (NCI-H661; first compound 0.8 µM) of the same molecule?
**A.** 0.922

**Q.** And the relative viability (NCI-H661; first compound 2.53 µM)?
**A.** 0.922

**Q.** And the relative viability (LK-2; first compound 0.08 µM)?
**A.** 0.216

**Q.** And the relative viability (LK-2; first compound 0.253 µM)?
**A.** 0.208

**Q.** And the relative viability (LK-2; first compound 0.8 µM)?
**A.** 0.168

**Q.** What about the relative viability (LK-2; first compound 2.53 µM) of the same molecule?
**A.** 0.154

**Q.** What about the relative viability (NCI-H2405; first compound 0.08 µM) of the same molecule?
**A.** 0.703

**Q.** And the relative viability (NCI-H2405; first compound 0.253 µM)?
**A.** 0.541

**Q.** What about the relative viability (NCI-H2405; first compound 0.8 µM) of the same molecule?
**A.** 0.774

**Q.** What about the relative viability (NCI-H2405; first compound 2.53 µM) of the same molecule?
**A.** 0.8

**Q.** And the relative viability (NCI-H520; first compound 0.08 µM)?
**A.** 0.206

**Q.** And the relative viability (NCI-H520; first compound 0.253 µM)?
**A.** 0.213

**Q.** What about the relative viability (NCI-H520; first compound 0.8 µM) of the same molecule?
**A.** 0.242

**Q.** And the relative viability (NCI-H520; first compound 2.53 µM)?
**A.** 0.164

**Q.** What about the relative viability (HCC-15; first compound 0.08 µM) of the same molecule?
**A.** 0.244

**Q.** What about the relative viability (HCC-15; first compound 0.253 µM) of the same molecule?
**A.** 0.114

**Q.** What about the relative viability (HCC-15; first compound 0.8 µM) of the same molecule?
**A.** 0.4

**Q.** What about the relative viability (HCC-15; first compound 2.53 µM) of the same molecule?
**A.** 0.365

**Q.** And the relative viability (RERF-LC-KJ; first compound 0.08 µM)?
**A.** 1.3

**Q.** What about the relative viability (RERF-LC-KJ; first compound 0.253 µM) of the same molecule?
**A.** 1.18

**Q.** And the relative viability (RERF-LC-KJ; first compound 0.8 µM)?
**A.** 1.44

**Q.** And the relative viability (RERF-LC-KJ; first compound 2.53 µM)?
**A.** 1.35

**Q.** And the relative viability (NCI-H2228; first compound 0.08 µM)?
**A.** 0.154

**Q.** What about the relative viability (NCI-H2228; first compound 0.253 µM) of the same molecule?
**A.** 0.134

**Q.** What about the relative viability (NCI-H2228; first compound 0.8 µM) of the same molecule?
**A.** 0.157

**Q.** And the relative viability (NCI-H2228; first compound 2.53 µM)?
**A.** 0.191
